Source: ChEMBL document CHEMBL4184149, “Discovery and process development of a novel TACE inhibitor for the topical treatment of psoriasis” (Bioorg Med Chem, 2018)
≈ marks a conversion by molar mass, not a printed value. Calls of active or inactive are those of the source. The calls are words filed in the database; no cut-off is given here.

Legend:
[1] = Aqueous solubility of the compound in PBS at pH 7.4 at 20 degC after 24 hrs by HPLC analysis; format: physicochemical
[2] = Solubility of the compound in propylene glycol/ethanol96 at 30 mg/ml after 24 hrs by UV-spectrometric analysis; format: physicochemical; details: for solubility at 24 h: propylene glycol/ethanol96; for solubility: 24 h
[3] = (§1) Intrinsic clearance in human hepatocytes assessed per million cells at 1 uM by LC-MS/MS analysis; format: ADME, cell-based, Hepatocyte; details: human hepatocytes, read-out: CLH
[4] = Stability of the compound in propylene glycol/ethanol96 at 0.1 mg/ml measured up to 3 months by HPLC analysis; format: physicochemical; details: read-out: Stability
[5] = Photoirritancy factor, ratio of EC50 for human neonatal keratinocytes under dark condition to EC50 for human neonatal keratinocytes under 5 J/cm2 UV light exposure; format: toxicity; details: read-out: Ratio EC50
[6] = system: TK6; assay: Genotoxicity in p53-competent human TK6 cells in absence of Sprague-Dawley rat S9 fraction by GADD45alpha GFP reporter assay; format: toxicity, cell-based
[7] = target: Disintegrin and metalloproteinase domain-containing protein 17 (Homo sapiens, UniProt P78536); assay: Inhibition of TACE in human PBMC assessed as reduction in LPS-induced TNFalpha production incubated overnight by HTRF assay; format: cell-based
[8] = system: TK6; assay: Genotoxicity in p53-competent human TK6 cells in presence of Sprague-Dawley rat S9 fraction by GADD45alpha GFP reporter assay; format: toxicity, cell-based
[9] = Half life in human neonatal keratinocytes at 1 uM by LC-MS/MS analysis; format: ADME, cell-based
[10] = system: Mus musculus; assay: Antiinflammatory activity in topically applied oxazolone-induced chronic skin inflammation hairless SKH1 mouse model assessed as decrease in skin lesions applied topically for 10 days in combination with oxazolone; format: functional, organism-based
[11] = Stability of the compound in propylene glycol/ethanol96 assessed as parent compound remaining at 0.1 mg/ml after 1 month at 40 degC by HPLC analysis; format: physicochemical; details: read-out: Stability
[12] = system: Hepatocyte; assay: as §1; format: ADME, cell-based; details: hepatocytes, 1 µM

Disintegrin and metalloproteinase domain-containing protein 17, sequence (P78536 whole entry, the tested form may be a part): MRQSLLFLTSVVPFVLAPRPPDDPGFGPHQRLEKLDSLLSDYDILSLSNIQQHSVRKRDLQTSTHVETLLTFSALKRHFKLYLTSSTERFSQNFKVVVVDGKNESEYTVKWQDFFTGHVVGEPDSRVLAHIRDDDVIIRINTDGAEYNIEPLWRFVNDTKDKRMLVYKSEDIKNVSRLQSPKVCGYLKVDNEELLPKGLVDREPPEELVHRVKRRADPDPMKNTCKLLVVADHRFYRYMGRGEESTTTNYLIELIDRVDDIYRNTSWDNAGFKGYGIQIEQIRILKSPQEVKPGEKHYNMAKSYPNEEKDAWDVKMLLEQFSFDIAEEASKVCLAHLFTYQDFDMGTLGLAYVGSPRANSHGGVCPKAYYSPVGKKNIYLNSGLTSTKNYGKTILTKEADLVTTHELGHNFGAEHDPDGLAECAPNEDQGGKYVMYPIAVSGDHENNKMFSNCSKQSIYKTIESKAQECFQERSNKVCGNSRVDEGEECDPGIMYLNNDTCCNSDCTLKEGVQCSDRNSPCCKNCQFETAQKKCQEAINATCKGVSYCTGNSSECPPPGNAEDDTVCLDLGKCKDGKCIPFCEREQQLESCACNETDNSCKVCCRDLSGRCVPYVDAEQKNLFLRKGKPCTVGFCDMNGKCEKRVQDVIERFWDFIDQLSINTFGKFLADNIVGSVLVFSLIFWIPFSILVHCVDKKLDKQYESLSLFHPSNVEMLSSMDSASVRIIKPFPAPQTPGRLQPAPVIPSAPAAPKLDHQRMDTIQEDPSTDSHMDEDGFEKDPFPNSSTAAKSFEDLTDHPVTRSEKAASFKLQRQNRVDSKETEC

Structure (SMILES)	solubility at 24 h [2] [µM]	IC50 [7] [nM]	also measured
CC(=O)N1CC(CC(=O)NO)(NS(=O)(=O)c2ccc(OCc3cc(C)nc4ccccc34)cc2)C1	800 (≈ 399 µg/mL)	8	solubility at 24 h [1]: < 0.5 µM; hepatocyte CLint at 1 µM [3]: < 5 µL/min/1e6 cells; remaining at 0.1 mg/ml [4]: 98%; selectivity ratio [5]: 1; Activity [6]: Non-Toxic; Activity [8]: Non-Toxic; half-life at 1 µM [9]: > 1440 min
CCN(C1(C(=O)NO)CN(C(=O)C(C)C)C1)S(=O)(=O)c1ccc(OCc2cc(C)nc3ccccc23)cc1	44000 (≈ 23800 µg/mL)	37	hepatocyte CLint at 1 µM [3]: 11 µL/min/1e6 cells
Cc1cc(COc2ccc(S(=O)(=O)NC3(C(=O)NO)CCC3)cc2)c2ccccc2n1		30	Activity [6]: Toxic; Activity [8]: Toxic
Cc1cc(COc2ccc(S(=O)(=O)NC3(CC(=O)NO)CCN(C(=O)CC(C)C)C3)cc2)c2ccccc2n1 (stereo in doubt; 18g)		8	solubility [2]: 17 mM (≈ 9430 µg/mL); Activity [6]: Toxic; Activity [8]: Toxic
Cc1cc(COc2ccc(S(=O)(=O)NC3(C(=O)NO)CCCC3)cc2)c2ccccc2n1	200 (≈ 91.1 µg/mL)	68	
Cc1cc(COc2ccc(S(=O)(=O)N(C(C)C)C3(C(=O)NO)CN(C(=O)C(C)C)C3)cc2)c2ccccc2n1	2200 (≈ 1220 µg/mL)	790	hepatocyte CLint at 1 µM [3]: 17 µL/min/1e6 cells
CC(=O)N1CC2(C1)CC(NS(=O)(=O)c1ccc(OCc3cc(C)nc4ccccc34)cc1)(C(=O)NO)C2	17000 (≈ 8920 µg/mL)	36	solubility at 24 h [1]: 84 µM (≈ 44.1 µg/mL); hepatocyte CLint at 1 µM [3]: < 5 µL/min/1e6 cells; remaining at 0.1 mg/ml [4]: 95%; Activity [6]: Toxic; Activity [8]: Toxic; half-life at 1 µM [9]: > 1440 min
CC(=O)N1CC(CC(=O)NO)(NS(=O)(=O)c2ccc(Cc3cc(C)nc4ccccc34)cc2)C1	1900 (≈ 917 µg/mL)	240	
CC(=O)N1CC(CC(=O)NO)(NS(=O)(=O)c2ccc(OCc3cc(C)nc4ccccc34)cc2C)C1	900 (≈ 461 µg/mL)	> 10000	
CCCCC(=O)O[C@]1(C(=O)CO)[C@@H](C)C[C@H]2[C@@H]3CCC4=CC(=O)C=C[C@]4(C)[C@@]3(F)[C@@H](O)C[C@@]21C			Activity [10]: Active
CC(=O)N1CC2(C1)CC(CC(=O)NO)(NS(=O)(=O)c1ccc(OCc3cc(C)nc4ccccc34)cc1)C2	3000 (≈ 1620 µg/mL)	4	
CC(=O)N1CC(CC(=O)NO)(NS(=O)(=O)c2ccc(SCc3cc(C)nc4ccccc34)cc2)C1	1000 (≈ 515 µg/mL)	720	
Cc1cc(COc2ccc(S(=O)(=O)NC3(C(=O)NO)CC3)cc2)c2ccccc2n1	46000 (≈ 19700 µg/mL)	210	Activity [6]: Toxic; Activity [8]: Toxic
Cc1cc(COc2ccc(S(=O)(=O)NC3(C(=O)NO)CN(CCC(F)(F)F)C3)cc2)c2ccccc2n1			remaining at 730.5 h, 0.1 mg/ml [11]: 58%
CC#CCOc1ccc(S(=O)(=O)NC2(CC(=O)NO)CN(C(C)=O)C2)cc1	1800 (≈ 712 µg/mL)	1300	
Cc1cc(COc2ccc(S(=O)(=O)NC(C)(C)C(=O)NO)cc2)c2ccccc2n1		140	
Cc1cc(COc2ccc(S(=O)(=O)NC3(CC(=O)NO)CCC3)cc2)c2ccccc2n1		13	
Cc1cc(COc2ccc(S(=O)(=O)NC(C)(C)CC(=O)NO)cc2)c2ccccc2n1	1600 (≈ 710 µg/mL)	43	
Cc1cc(COc2ccc(S(=O)(=O)NC3(CC(=O)NO)CN(C(=O)CC(C)C)C3)cc2)c2ccccc2n1	900 (≈ 487 µg/mL)	6	hepatocyte CLint at 1 µM [3]: 13 µL/min/1e6 cells
CCCCN1CC(CC(=O)NO)(NS(=O)(=O)c2ccc(OCc3cc(C)nc4ccccc34)cc2)C1	4900 (≈ 2510 µg/mL)	12	remaining at 730.5 h, 0.1 mg/ml [11]: 72%; solubility at 24 h [1]: 70 µM (≈ 35.9 µg/mL)

Structure (SMILES)	solubility at 24 h [2] [µM]	IC50 [7] [nM]	also measured
Cc1cc(COc2ccc(S(=O)(=O)NCCC(=O)NO)cc2)c2ccccc2n1	4100 (≈ 1700 µg/mL)	2300	
Cc1cc(COc2ccc(S(=O)(=O)NC3(CC(=O)NO)CCN(C(=O)CC(C)C)C3)cc2)c2ccccc2n1 (stereo in doubt; 18h)		42	solubility [2]: 7.9 mM (≈ 4380 µg/mL)
CC(=O)N1CC(CC(=O)NO)(N(C)S(=O)(=O)c2ccc(OCc3cc(C)nc4ccccc34)cc2)C1		590	
Cc1cc(COc2ccc(S(=O)(=O)NC3(CC(=O)NO)CC3)cc2)c2ccccc2n1	1600 (≈ 706 µg/mL)	84	
Cc1cc(COc2ccc(S(=O)(=O)N(C)C3(C(=O)NO)CN(CCC(F)(F)F)C3)cc2)c2ccccc2n1			remaining at 730.5 h, 0.1 mg/ml [11]: 98%
Cc1cc(COc2ccc(S(=O)(=O)NC3(CC(=O)NO)CN(C(=O)N4CCCCC4)C3)cc2)c2ccccc2n1	500 (≈ 284 µg/mL)	5	solubility at 24 h [1]: 80 µM (≈ 45.4 µg/mL)
Cc1cc(COc2ccc(S(=O)(=O)NC3(C(=O)NO)CN(C(=O)CC(C)C)C3)cc2)c2ccccc2n1	5000 (≈ 2630 µg/mL)	33	hepatocyte CLint at 1 µM [3]: 6 µL/min/1e6 cells
Cc1cc(COc2ccc(S(=O)(=O)NC3(CC(=O)NO)CN(C(=O)C(C)(C)N(C)C)C3)cc2)c2ccccc2n1	11000 (≈ 6270 µg/mL)	4.6	Stability [12]: Unstable; Activity [6]: Non-Toxic; Activity [8]: Non-Toxic
Cc1cc(COc2ccc(S(=O)(=O)NC3(C(=O)NO)CN(C(=O)C(C)C)C3)cc2)c2ccccc2n1	17000 (≈ 8710 µg/mL)	16	hepatocyte CLint at 1 µM [3]: < 5 µL/min/1e6 cells; Activity [6]: Non-Toxic; Activity [8]: Non-Toxic
CC(=O)N1CCC(NS(=O)(=O)c2ccc(OCc3cc(C)nc4ccccc34)cc2)(C(=O)NO)CC1	59000 (≈ 30200 µg/mL)	61	Activity [6]: Toxic; Activity [8]: Toxic
CC(=O)N1CC(CC(=O)NO)(NS(=O)(=O)c2ccc(OCc3cc(C)nc4c(F)cccc34)cc2)C1		61	
Cc1cc(COc2ccc(S(=O)(=O)NC3(CC(=O)NO)COC3)cc2)c2ccccc2n1	200 (≈ 91.5 µg/mL)	10	
Cc1cc(COc2ccc(S(=O)(=O)NCC(=O)NO)cc2)c2ccccc2n1	100 (≈ 40.1 µg/mL)	82	
Cc1cc(COc2ccc(S(=O)(=O)NC3(CC(=O)NO)CN(CCC(F)(F)F)C3)cc2)c2ccccc2n1	3400 (≈ 1880 µg/mL)	10	remaining at 730.5 h, 0.1 mg/ml [11]: 88%
Cc1cc(COc2ccc(S(=O)(=O)NC[C@@H](C(=O)NO)N3CCCCC3)cc2)c2ccccc2n1	8000 (≈ 3990 µg/mL)		solubility at 24 h [1]: < 1 µM; hepatocyte CLint at 1 µM [3]: 24 µL/min/1e6 cells; remaining at 0.1 mg/ml [4]: 89%; Activity [6]: Non-Toxic; Activity [8]: Non-Toxic; half-life at 1 µM [9]: > 1440 min
COCCN(C1(C(=O)NO)CN(C(=O)C(C)C)C1)S(=O)(=O)c1ccc(OCc2cc(C)nc3ccccc23)cc1	8900 (≈ 5080 µg/mL)	31	hepatocyte CLint at 1 µM [3]: 18 µL/min/1e6 cells
Cc1cc(COc2ccc(S(=O)(=O)NC3(CC(=O)NO)CN(C(=O)OC(C)C)C3)cc2)c2ccccc2n1	1100 (≈ 597 µg/mL)	6	solubility at 24 h [1]: 80 µM (≈ 43.4 µg/mL)
CCc1cc(COc2ccc(S(=O)(=O)NC3(CC(=O)NO)CN(C(C)=O)C3)cc2)c2ccccc2n1	400 (≈ 205 µg/mL)	27	
Cc1cc(COc2ccc(S(=O)(=O)NC3(C(=O)NO)CCCCC3)cc2)c2ccccc2n1	11000 (≈ 5170 µg/mL)	100	Activity [6]: Non-Toxic; Activity [8]: Non-Toxic
CC(=O)N1CC(CC(=O)NO)(NS(=O)(=O)c2ccc(OCc3cc(C)nc4ccccc34)c(C)c2)C1	400 (≈ 205 µg/mL)	> 10000	
